From patent US5348968A, “Indole, indazole and benzisoxazole compounds” (Adir et Compagnie, priority 1993, dated 1994)
Where a name gives a salt, the structure may show the parent alone.

Assays:
[1] = molecular target: T1, 5-HT1 receptor (Canis lupus familiaris, UniProt P79250); assay: Contraction of the vena saphena isolated from dogs; set-up: species or system dog; settings: % of maximum effect induced by KCl, after phenoxybenzamine, cumulative doses 10^-9 to 10^-4 M, read-out: 50% effective concentration (EC50)
T1 construct: The venae saphenae are rapidly removed and cut into rings; from tissue; host or cells: dog saphenous vein rings
Description: (§1) Contraction of the vena saphena
(§2) Experiments are carried out on venae saphenae of dogs (10-25kg) or rabbits (2-3 kg) anesthetized with pentobarbital (30 mg/kg i.v.). The venae saphenae are rapidly removed and cut into rings. These rings are mounted between two hooks in tanks thermostatically controlled at 37° C. containing physiological solution (composition in mM: NaCl118.3; KCl 4.7; CaCl2 2.5; MgSO4 1.2; KH2 PO4 1.2; NaHCO3 25.0; Ca-EDTA 0.026 and glucose 11.1). A mixture of 95% O2 /5% CO2 is bubbled through the physiological solution. The lower hook constitutes the fixed point whereas the upper hook is connected to an isometric force sensor. The tissues are put under a base tension of 1.5 grams (dogs) and 1 gram (rabbits). The pharmacological substances studied are prepared immediately before use; they are dissolved in water or in dimethyl sulfoxide.
(§3) After mounting, the preparations are left standing for 60 minutes, rinsings being carried out every 30 minutes. The organ is then brought into contact with phenoxybenzamine (5×10^-8 M) for 20 minutes. This agent is removed by several successive washings over 45 minutes. After readjusting the base tension, a contraction is caused by KCl (100 mM).

[2] = molecular target: 5-HT1 receptor; assay: Contraction of the vena saphena isolated from rabbits; set-up: species or system rabbit; settings: % of maximum effect induced by KCl, after phenoxybenzamine, cumulative doses 10^-9 to 10^-4 M, read-out: 50% effective concentration (EC50)
Description: as §1, §2, §3

T1 sequence (P79250 whole entry): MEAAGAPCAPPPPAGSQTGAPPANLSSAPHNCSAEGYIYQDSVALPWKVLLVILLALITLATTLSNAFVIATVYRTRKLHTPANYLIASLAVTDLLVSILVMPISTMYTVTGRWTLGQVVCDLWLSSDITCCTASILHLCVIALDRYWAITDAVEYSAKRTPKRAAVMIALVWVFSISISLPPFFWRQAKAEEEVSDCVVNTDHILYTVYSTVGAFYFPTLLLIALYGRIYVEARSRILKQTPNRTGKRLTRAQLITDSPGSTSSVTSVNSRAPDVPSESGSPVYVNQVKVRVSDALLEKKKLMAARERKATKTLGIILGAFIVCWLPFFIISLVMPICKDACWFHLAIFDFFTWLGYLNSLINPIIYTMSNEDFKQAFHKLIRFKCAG

## CCCN1CCC(Cc2c[nH]c3ccc(C(N)=O)cc23)C1 (centres unmarked) [Example 17, 3-[(1-Propylpyrrolidin-3-yl)methyl]-5-aminocarbonylindole, oxalate]
[1]
  EC50: 340 nM
[2]
  EC50: 410 nM
